For one assay, the system named is rats. Briefly: Suppression of the reduction of prepulse inhibition (PPI) by methamphetamine. The class given is in vivo. The conditions noted are these: orally 30 min before 3 mg/kg methamphetamine; rat startle reaction, 120 dB pulse with prepulse. The procedure: Systems tested for prepulse inhibition which can detect specifically antipsychotic effect were also investigated. By using startle reflex measuring device (San Diego Instruments) which can dectect movement of rats, startle reaction to 120 dB-sound stimulation (pulse stimulation) combined with 63, 66 and 72 dB-sound stimulation prior to pulse stimulation (prepulse) was measured in the presence of 60 dB-background sound. The compounds of the present invention or appropriate solvents were administered to rats, and normal saline solution or 3 mg/kg of methamphetamine was administered 30 min later, to measure startle reation. Startle reactions to pulse stimulation and to stimulation with prepulse were named A and B respectively, and the prepulse inhibition (herein referred to as PPI) level was calculated with the following formula. Calculating formula of PPI:PPI(%)=100×(A−B)/A
In contrast to startle reaction toward pulse stimulation, in the presence of preminary prepulse of 72 dB, startle reaction decreased by about 50% (prepulse inhibition). When pre-treating with methamphemine, strate reaction decreased only by about 20%, and decrease of prepulse inhibition was observed. Moreover, by administrating orally the compounds having mGluR1 antagonist effect 30 min before methamphetamine administration to the present models, decrease of prepulse inhibition by methamphetamine had tendance to recover.

Assay [1] addresses T1, human metabotropic glutamate receptor 1a (mGluR1a) (Homo sapiens, UniProt Q13255).
T1 construct: expressed in transfected cells
Nature of the assay: mGluR1 inhibiting effect: intracellular calcium concentration (FLIPR) in mGluR1a-expressing CHO cells. It counts as cell-based. The conditions noted are these: suppression of calcium increase by 10 μM glutamic acid, test compound added 5 min before agonist. The procedure:
MGlu1 inhibiting effect was measured by using the compound of the present invention.
With the use of Lipofectamine (Gibco BRL), cDNA of human metabotropic glutamate receptor 1a (mGluR1a) were transfected to CHO cells, to obtain cells expressing mGluR1a in a stable manner. CHO cells which expressed mGluR1a were cultured in DMEM medium containing 10% dialysis fetal bovine serum, 1% proline, 100 units/ml of penicillin, 0.1 mg of streptomycin sulfate and […] glutamine.
4 μM of Fluo-3 was incubated to mGluR1a-expressing CHO cells plated with 50000 cells per 1 well of 96-well black plate (Packard, Viewplate) the day before the measurement, in a CO2 incubator for 1 hour. The cells were washed 4 times with HBSS solution containing 20 mM HEPES and 25 mM probenecid, and the intracellular calcium concentration was measured with the use of Fluorescence Imaging Plate Reader (FLIPR; Mollecular Device). The test compounds and glutamic acid were adjusted with HBSS solution containing 20 mM HEPES and 2.5 mM Probenecid. The test compounds were added 5 min before agonist stimulation, and 10 μM of glutamic acid was used as agonist.
The calcium increased with 10 μM of glutamic acid was suppressed dose-dependently.

For the next assay, the system named is male ICR(CD-1) mouse. Briefly: Suppression of mouse spontaneous movement level increased by methamphetamine. It counts as in vivo. The conditions noted are these: po, 1 h, 3 mg/kg orally 30 min before 2 mg/kg methamphetamine, movement level during 60 min. The procedure: With the use of male ICR(CD-1) mouse (20-40 g), movement level was measured with the use of movement level-measuring device detecting animal migration by infrared radiation sensor (Neuroscience). Compounds or appropriate solvents were administered to mice, and after administrating normal saline solution or 2 mg/kg of methamphetamine 30 min later, the movement level during 60 min from after the administration was measured. By making the difference between the movement level of the methamphetamine-administered group and that of the solvents-administered group during measuring period as 100%, the movement level of test compound-administered group was shown by inhibition % for estimation.

T1 sequence (Q13255 19-1194): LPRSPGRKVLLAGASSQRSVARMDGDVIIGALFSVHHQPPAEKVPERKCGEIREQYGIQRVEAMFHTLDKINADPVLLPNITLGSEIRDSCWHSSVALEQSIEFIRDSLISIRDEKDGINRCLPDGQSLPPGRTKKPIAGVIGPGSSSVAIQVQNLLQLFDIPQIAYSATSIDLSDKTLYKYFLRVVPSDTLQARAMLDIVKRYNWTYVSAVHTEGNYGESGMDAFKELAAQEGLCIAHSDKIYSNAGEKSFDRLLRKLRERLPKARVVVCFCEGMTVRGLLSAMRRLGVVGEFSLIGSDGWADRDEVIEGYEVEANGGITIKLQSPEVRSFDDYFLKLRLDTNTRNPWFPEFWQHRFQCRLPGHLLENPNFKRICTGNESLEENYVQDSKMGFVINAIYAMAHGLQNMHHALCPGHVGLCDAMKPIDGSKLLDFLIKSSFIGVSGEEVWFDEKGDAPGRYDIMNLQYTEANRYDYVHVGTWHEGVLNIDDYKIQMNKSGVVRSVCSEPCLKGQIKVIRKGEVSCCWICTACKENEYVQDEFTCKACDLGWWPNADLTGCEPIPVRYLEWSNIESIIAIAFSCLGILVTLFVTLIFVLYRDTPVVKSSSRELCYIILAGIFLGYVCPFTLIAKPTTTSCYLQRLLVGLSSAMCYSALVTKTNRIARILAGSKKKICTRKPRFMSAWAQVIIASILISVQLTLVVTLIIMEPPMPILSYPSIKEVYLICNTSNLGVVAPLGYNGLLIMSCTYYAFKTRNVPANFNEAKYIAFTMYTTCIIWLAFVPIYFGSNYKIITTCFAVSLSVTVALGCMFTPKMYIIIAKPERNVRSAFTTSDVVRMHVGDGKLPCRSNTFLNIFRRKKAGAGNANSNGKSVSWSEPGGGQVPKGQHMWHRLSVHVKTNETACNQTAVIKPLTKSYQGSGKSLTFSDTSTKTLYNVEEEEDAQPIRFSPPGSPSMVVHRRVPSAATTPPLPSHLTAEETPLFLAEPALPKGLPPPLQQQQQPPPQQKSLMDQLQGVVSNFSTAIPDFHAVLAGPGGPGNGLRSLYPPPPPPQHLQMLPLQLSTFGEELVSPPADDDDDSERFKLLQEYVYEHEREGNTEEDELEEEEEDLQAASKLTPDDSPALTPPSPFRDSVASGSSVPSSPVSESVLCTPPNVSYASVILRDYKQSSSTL

As for `Cc1c(-c2ccc3c(c2)CC2(CC2)C3=O)nnn1-c1cccnc1F` [Example 34, 1-(2-fluoropyridine-3-yl)-5-methyl-4-(1-oxoindane-2-spiro-1′-cyclopropyl-5-yl)-1H-[1,2,3]triazole], the “Inhibition effect to PPI disorder” value in the assay on rats is recorded as “yes”. Also, the IC50 in assay [1] amounted to 2.3 nM. The compound also yielded an inhibition in vivo at 3 mg/kg in the assay on male ICR(CD-1) mouse of more than 50%.

Regarding `Cc1c(-c2ccc3c(c2)CN(C(C)C)C3=O)nnn1-c1cccnc1F` [Example 36, 4-(2-isopropyl-1-oxo-isoindoline-5-yl)-1-(2-fluoropyridine-3-yl)-5-methyl-1H-[1,2,3]triazole], the “Inhibition effect to PPI disorder” value in the assay on rats was “yes”. In assay [1], the IC50 stood at 6.5 nM. Further, the inhibition in vivo at 3 mg/kg in the assay with male ICR(CD-1) mouse was more than 50%.

As to `Cc1c(-c2ccc3c(c2)CN(C2CC2)C3=O)nnn1-c1cccnc1F` [Example 49, 4-(2-cyclopropyl-1-oxo-isoindoline-5-yl)-1-(2-fluoropyridine-3-yl)-5-methyl-1H-[1,2,3]triazole], the “Inhibition effect to PPI disorder” value with rats is recorded as “yes”. For the same compound, in assay [1], the IC50 worked out at 3.2 nM. In the assay on male ICR(CD-1) mouse, this compound returned an inhibition in vivo at 3 mg/kg of more than 50%.

Take `CCCN1Cc2cc(-c3nnn(-c4cccnc4F)c3C)ccc2C1=O` [Example 85, 1-(2-fluoropyridine-3-yl)-5-methyl-4-(2-propyl-1-oxo-isoindoline-5-yl)-1H-[1,2,3]triazole]: the “Inhibition effect to PPI disorder” value with rats is “yes”. Moreover, in assay [1], the IC50 was found to be 4.4 nM. For the same compound, in the assay on male ICR(CD-1) mouse, the inhibition in vivo at 3 mg/kg is more than 50%.

For the compound `Cc1c(-c2ccc3c(c2)CN(C2CC2)C3=O)nnn1-c1ccccc1F` [Example 87, 4-(2-cyclopropyl-1-oxo-isoindoline-5-yl)-1-(2-fluorobenzene-3-yl)-5-methyl-1H-[1,2,3]triazole], the “Inhibition effect to PPI disorder” value in the assay with rats is “yes”. Further, in assay [1], the IC50 is 4.3 nM. In the assay with male ICR(CD-1) mouse, this compound registered an inhibition in vivo at 3 mg/kg of more than 50%.

Consider `Cc1c(-c2ccc3c(c2)CN(C(C)C)C3=O)nnn1-c1ccc(F)cc1F` [Example 119, 4-(2-isopropyl-1-oxo-isoindoline-5-yl)-1-(2,4-difluorophenyl)-5-methyl-1H-[1,2,3]triazole], for which the “Inhibition effect to PPI disorder” value with rats is given as “yes”. Also, the 50% inhibitory concentration (IC50) in assay [1] turned out to be 4.3 nM. The compound also displayed an inhibition in vivo at 3 mg/kg in the assay with male ICR(CD-1) mouse of more than 50%.

In the case of `Cc1c(-c2ccc3c(c2)CN(CC(F)F)C3=O)nnn1-c1ccc(F)cc1` [Example 151, 4-(2-(2,2-difluoroethyl)-1-oxo-isoindoline-5-yl)-1-(4-fluorophenyl)-5-methyl-1H-[1,2,3]triazole], the “Inhibition effect to PPI disorder” value in the assay on rats is recorded as “yes”. In addition, the IC50 in assay [1] came out at 2.5 nM. For the same compound, in the assay on male ICR(CD-1) mouse, the inhibition in vivo at 3 mg/kg is more than 50%.

In the case of `Cc1c(-c2ccc3c(c2)CN(CC(C)(C)O)C3=O)nnn1-c1ccc(F)cc1` [Example 181, 4-(2-(2-hydroxy-2-methyl-propyl)-1-oxo-isoindoline-5-yl)-1-(4-fluorophenyl)-5-methyl-1H-[1,2,3]triazole], the “Inhibition effect to PPI disorder” value in the assay with rats was “yes”. Also, the half-inhibitory concentration (IC50) in assay [1] turned out to be 18 nM. In the assay with male ICR(CD-1) mouse, this compound showed an inhibition in vivo at 3 mg/kg of more than 50%.

Regarding `Cc1c(-c2ccc3c(=O)n(CC(C)(C)O)ccc3c2)nnn1-c1ccc(F)cc1` [Example 204, 4-(2-(2-hydroxy-2-methyl-propyl)-1-oxo-isoquinoline-6-yl)-1-(4-fluorophenyl)-5-methyl-1H-[1,2,3]triazole], in the assay on rats, the “Inhibition effect to PPI disorder” value was “yes”. In addition, in assay [1], the IC50 was determined as 3.4 nM. The same compound gave an inhibition in vivo at 3 mg/kg in the assay on male ICR(CD-1) mouse of more than 50%.

`Cc1c(-c2ccc3nc(CC(C)(C)O)ccc3c2)nnn1-c1ccc(F)cc1` [Example 227]: the “Inhibition effect to PPI disorder” value in the assay on rats is listed as “yes”. Further, in assay [1], the half-maximal inhibitory concentration (IC50) turned out to be 2.4 nM. In the assay on male ICR(CD-1) mouse, the inhibition in vivo at 3 mg/kg was more than 50%.

Values taken from patent US7902369B2, “Diaryl-substituted five-membered heterocycle derivative” (Banyu Pharmaceutical Co., Ltd., priority 2004, dated 2011).
